{
  "source": "patent US20030036082A1",
  "about": "“Screening methods” (priority 2001, published 2003)",
  "key": {"DGKδ": {"test_system": "DGKδ", "test": "DGKδ protein expression in gastrocnemius skeletal muscle by immunoblotting after phlorizin treatment", "format": "in vivo", "settings": "GK rats, phlorizin 0.8 g/kg body wt per day s.c. for 4 weeks", "experimental": "(§1) In order to investigate the influence of DGKδ on insulin-stimulated glucose uptake in more detail, DGKδ expression studies and measurements of DGK activity were performed in GK rats, a lean animal model for type 2 diabetes (Goto et al., pp. 301-303 in: Frontiers in Diabetes Research (Shafrir E., Renold, A E, Eds.) London, John Libbey, 1988). Male GK rats (200-250 g) were obtained from the Karolinska Institute, Sweden. Weight-matched male Wistar rats served as controls (B&K Universal, Sollentuna, Sweden). All rats were maintained under a 12-hour light/dark cycle, and had free access to water and standard rodent diet. Four groups of animals were studied: vehicle-treated Wistar rats (n=5), phlorizin-treated Wistar rats (n=6), vehicle-treated GK-rats (n=6) and phlorizin-treated GK-rats (n=6). […]\nPortions of the gastrocnemius skeletal muscle (approximately 30 mg) were crushed in liquid N2 and then lysed in ice-cold buffer (137 mM NaCl, 2.7 mM KCl, 1 mM MgCl2, 0.5 mM Na3VO4, 1% Triton X-100, 10% glycerol, 20 mM Tris pH 8.0, […] leupeptin, 0.2 mM PMSF, 10 mM NaF, 10 μg/ml aprotinin). […] The supernatant was removed and protein concentration was determined. […] Proteins were visualized by ECL and quantified by densitometric scanning."}, "total DGK activity [1]": {"test_system": "total DGK activity", "test": "Octyl glucoside/PS mixed-micelle assay of total DGK activity in gastrocnemius muscle after phlorizin treatment", "format": "in vivo", "settings": "GK rats, phlorizin 0.8 g/kg body wt per day s.c. for 4 weeks", "experimental": "as §1, with “diet.” for “diet. Four groups of animals were studied: vehicle-treated Wistar rats (n=5), phlorizin-treated Wistar rats (n=6), vehicle-treated GK-rats (n=6) and phlorizin-treated GK-rats (n=6).”\nPortions of the gastrocnemius skeletal muscle (approximately 30 mg) were crushed in liquid nitrogen, homogenized by sonication in ice-cold buffer containing 20 mM Tris-HCl, pH 7.5, 250 mM sucrose, 1 mM EDTA, 1 mM EGTA, 1 mM dithiothreitol (DTT), 1 mM PMSF, a 20 μg/ml concentration of each: leupeptin, pepstatin, aprotinin, and soybean trypsin inhibitor and centrifuged at 12,000×g for 10 min at 4° C. The supernatant was collected and protein concentration was determined.\nAn octyl glucoside/PS mixed-micelle assay of total DGK activity was performed using [γ-^32P] […] The region containing phosphatidic acid was quantified by phosphoimaging and densitometry."}, "[2]": {"settings": "diabetic GK rats, treatment with phlorizin; cited from earlier work"}, "total DGK activity [3]": {"test_system": "total DGK activity", "test": "Reduction of total DGK activity by DGK inhibitor (data not shown)", "format": "biochemical"}, "[4]": {"test_system": "epitrochlearis muscle from Wistar rats", "test": "3-O-methyl-glucose transport in isolated epitrochlearis muscle", "format": "cell-based", "settings": "25 μM inhibitor, Wistar rat epitrochlearis muscle", "experimental": "The influence of total DGK activity on insulin-stimulated glucose uptake was assessed by measurements on epitrochlearis muscle from Wistar rats using a specific inhibitor for diacylglycerol kinase, DGK inhibitor II™ (Jang, Y. et al. (2000) Biochem. Pharmacol. 59: 763-772).\nMedia were prepared from a pre-gassed (95% O2/5% CO2) Krebs Henseleit buffer (KHB) containing 5 mM glucose and 0.1% BSA (RIA grade). Epitrochlearis muscles were incubated (20 min) in a shaking water bath (30° C.) in 2 ml of KHB, supplemented with 20 mM mannitol, with or without 2.4 nM insulin and 25 μM DGK-II inhibitor (Calbiochem). Muscles were transferred to KHB containing 8 mM 3-O-methyl[^3H]glucose (438 μCi/mmol; 1 Ci=[…]) and 12 mM [^14C]mannitol (42 μCi/mmol) and incubated (10 min) with or without insulin and 25 μM of DGKII inhibitor. 3-O-methyl-glucose transport activity was assessed as described (Wallberg-Henriksson et al. (1987) J. Biol. Chem. 262: 7665-7671) and expressed as micromoles per milliliter of intracellular water per hour."}},
  "data": [
    {"smiles": "O=C(CCc1ccc(O)cc1)c1c(O)cc(O)cc1O[C@@H]1O[C@H](CO)[C@@H](O)[C@H](O)[C@H]1O", "note": "[phlorizin, Phlorizin]", "values": [
      {"measurement": "DGK content in the muscle (DGKδ protein level, immunoblot densitometry)", "setting": "DGKδ", "value": "increase of DGK content in the muscle to approximately the same values as measured in healthy Wistar rats"},
      {"measurement": "total DGK activity in muscle", "setting": "total DGK activity [1]", "value": "increase of total DGK activity in GK rat muscle upon phlorizin treatment to a level measured in muscle from healthy Wistar rats"},
      {"measurement": "blood glucose levels", "setting": "[2]", "value": "brings glucose levels back to normal values"}
    ]},
    {"smiles": "O=c1c2ccccc2[nH]c(=S)n1CCN1CCC(=C(c2ccc(F)cc2)c2ccc(F)cc2)CC1", "note": "[DGK inhibitor II™]", "values": [
      {"measurement": "reduction of total DGK activity", "setting": "total DGK activity [3]", "value": 70, "unit": "%"},
      {"measurement": "decrease of insulin-stimulated glucose transport", "setting": "[4]; 2.4 nM insulin", "value": "approximately 30%"},
      {"measurement": "basal glucose transport", "setting": "[4]; without insulin", "value": "not affected"}
    ]}
  ]
}
